We go through 7 compounds from patent US11987564B2, “PTPRD inhibitors and uses thereof” (United States Government as represented by the Department …, priority 2021, dated 2024).

The term pIC50 denotes the IC50 on a negative log10 scale, so that one unit is a factor of ten.

pIC50: −log10 of the molar value. Some results are limits rather than exact numbers.

One series deals with recombinant PTPRD (Homo sapiens, UniProt P23468). Kind of series: pNPP hydrolysis by recombinant PTPRD phosphatase.
The next series concerns the target PTPRS (Homo sapiens, UniProt Q13332). Kind of series: pNPP hydrolysis by recombinant PTPRS phosphatase. The class given is biochemical. From the text: (§1) Human […] ([…]-pY-[…]) phosphopeptide (Pierce/ThermoFisher) were synthesized.
The next series concerns the target T1, PTPRJ (Homo sapiens, UniProt Q12913).
T1 construct: purchased
T1 sequence (Q12913 36-1337): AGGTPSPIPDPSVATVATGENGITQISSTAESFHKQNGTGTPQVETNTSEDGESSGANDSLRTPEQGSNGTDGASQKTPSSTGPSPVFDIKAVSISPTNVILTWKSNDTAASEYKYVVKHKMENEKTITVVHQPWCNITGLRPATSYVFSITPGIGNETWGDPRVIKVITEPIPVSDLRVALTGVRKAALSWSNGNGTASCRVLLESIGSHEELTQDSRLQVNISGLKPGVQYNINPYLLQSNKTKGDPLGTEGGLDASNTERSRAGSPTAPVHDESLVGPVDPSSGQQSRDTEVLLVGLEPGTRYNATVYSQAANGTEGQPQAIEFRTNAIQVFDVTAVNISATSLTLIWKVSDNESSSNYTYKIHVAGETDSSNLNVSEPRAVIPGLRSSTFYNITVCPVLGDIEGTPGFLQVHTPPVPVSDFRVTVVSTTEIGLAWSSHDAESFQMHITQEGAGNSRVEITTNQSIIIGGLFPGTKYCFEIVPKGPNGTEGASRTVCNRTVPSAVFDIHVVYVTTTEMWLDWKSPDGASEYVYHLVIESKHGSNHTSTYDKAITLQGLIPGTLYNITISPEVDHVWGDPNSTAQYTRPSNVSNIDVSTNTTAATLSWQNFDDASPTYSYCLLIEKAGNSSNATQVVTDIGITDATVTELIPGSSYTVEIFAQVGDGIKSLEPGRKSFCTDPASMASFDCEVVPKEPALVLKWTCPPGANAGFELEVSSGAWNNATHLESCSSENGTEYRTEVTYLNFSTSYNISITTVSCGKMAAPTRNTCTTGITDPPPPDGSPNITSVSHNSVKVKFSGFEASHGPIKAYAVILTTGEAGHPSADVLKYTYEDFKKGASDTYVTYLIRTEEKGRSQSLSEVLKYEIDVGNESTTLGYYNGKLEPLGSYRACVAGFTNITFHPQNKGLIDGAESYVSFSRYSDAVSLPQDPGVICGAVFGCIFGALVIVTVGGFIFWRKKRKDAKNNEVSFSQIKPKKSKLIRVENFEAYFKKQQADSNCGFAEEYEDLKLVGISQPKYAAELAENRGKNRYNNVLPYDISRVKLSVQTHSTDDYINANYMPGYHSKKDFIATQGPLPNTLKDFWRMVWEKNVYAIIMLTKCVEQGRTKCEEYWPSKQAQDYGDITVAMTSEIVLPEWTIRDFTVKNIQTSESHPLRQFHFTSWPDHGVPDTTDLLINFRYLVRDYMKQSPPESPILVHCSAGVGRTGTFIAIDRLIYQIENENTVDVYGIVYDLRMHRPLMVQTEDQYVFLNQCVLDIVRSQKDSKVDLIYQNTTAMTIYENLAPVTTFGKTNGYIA
Nature of the series: pNPP hydrolysis by PTPRJ phosphatase. The class given is biochemical.
Text: as §1

In another series the target is PTPRF (Homo sapiens, UniProt P10586). Kind of series: pNPP hydrolysis by recombinant PTPRF phosphatase.
For another series, the target named is T2, PTPN1 (PTP1B) (Homo sapiens, UniProt P18031).
T2 construct: purchased
T2 sequence (P18031 1-435): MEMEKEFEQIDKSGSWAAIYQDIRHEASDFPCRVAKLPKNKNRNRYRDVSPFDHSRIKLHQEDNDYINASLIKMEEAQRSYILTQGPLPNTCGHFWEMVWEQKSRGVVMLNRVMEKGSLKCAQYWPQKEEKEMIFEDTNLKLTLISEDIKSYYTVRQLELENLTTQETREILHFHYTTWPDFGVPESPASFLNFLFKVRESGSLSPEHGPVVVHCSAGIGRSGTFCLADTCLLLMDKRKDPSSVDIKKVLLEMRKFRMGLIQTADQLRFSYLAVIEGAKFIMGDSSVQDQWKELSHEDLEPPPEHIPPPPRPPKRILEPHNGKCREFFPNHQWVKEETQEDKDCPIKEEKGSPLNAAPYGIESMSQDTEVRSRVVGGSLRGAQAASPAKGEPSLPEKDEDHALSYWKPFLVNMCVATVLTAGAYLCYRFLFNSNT
Nature of the series: pNPP hydrolysis by PTPN1 (PTP1B) phosphatase. The class given is biochemical. To be noted: untitled table after Table 4; mean, SEM in wrapped line.

Series [1] has as its system wildtype C57BL/6J or PTPRD knockout mice.
[2] abbreviates: PTPRD IC50, Table 4, mean (SEM) of three independent experiments, * = instability, no valid triplicate.
Setting [3] is: PTPRD IC50, untitled table after Table 4, mean, SEM in wrapped line, compounds with PTPRD IC50 <5 μM.
Setting [4] is: Table 4, mean (SEM) of three independent experiments, * = instability, no valid triplicate.
Where [5] appears, read: untitled table after Table 4, mean, SEM in wrapped line.
Setting [6] is: PTPRF IC50, untitled table after Table 4, mean, SEM in wrapped line.
Where [7] appears, read: PTPRF IC50, Table 4, mean (SEM) of three independent experiments, * = instability, no valid triplicate.

Chain of PTPRS (Q13332 30-1948, species assumed): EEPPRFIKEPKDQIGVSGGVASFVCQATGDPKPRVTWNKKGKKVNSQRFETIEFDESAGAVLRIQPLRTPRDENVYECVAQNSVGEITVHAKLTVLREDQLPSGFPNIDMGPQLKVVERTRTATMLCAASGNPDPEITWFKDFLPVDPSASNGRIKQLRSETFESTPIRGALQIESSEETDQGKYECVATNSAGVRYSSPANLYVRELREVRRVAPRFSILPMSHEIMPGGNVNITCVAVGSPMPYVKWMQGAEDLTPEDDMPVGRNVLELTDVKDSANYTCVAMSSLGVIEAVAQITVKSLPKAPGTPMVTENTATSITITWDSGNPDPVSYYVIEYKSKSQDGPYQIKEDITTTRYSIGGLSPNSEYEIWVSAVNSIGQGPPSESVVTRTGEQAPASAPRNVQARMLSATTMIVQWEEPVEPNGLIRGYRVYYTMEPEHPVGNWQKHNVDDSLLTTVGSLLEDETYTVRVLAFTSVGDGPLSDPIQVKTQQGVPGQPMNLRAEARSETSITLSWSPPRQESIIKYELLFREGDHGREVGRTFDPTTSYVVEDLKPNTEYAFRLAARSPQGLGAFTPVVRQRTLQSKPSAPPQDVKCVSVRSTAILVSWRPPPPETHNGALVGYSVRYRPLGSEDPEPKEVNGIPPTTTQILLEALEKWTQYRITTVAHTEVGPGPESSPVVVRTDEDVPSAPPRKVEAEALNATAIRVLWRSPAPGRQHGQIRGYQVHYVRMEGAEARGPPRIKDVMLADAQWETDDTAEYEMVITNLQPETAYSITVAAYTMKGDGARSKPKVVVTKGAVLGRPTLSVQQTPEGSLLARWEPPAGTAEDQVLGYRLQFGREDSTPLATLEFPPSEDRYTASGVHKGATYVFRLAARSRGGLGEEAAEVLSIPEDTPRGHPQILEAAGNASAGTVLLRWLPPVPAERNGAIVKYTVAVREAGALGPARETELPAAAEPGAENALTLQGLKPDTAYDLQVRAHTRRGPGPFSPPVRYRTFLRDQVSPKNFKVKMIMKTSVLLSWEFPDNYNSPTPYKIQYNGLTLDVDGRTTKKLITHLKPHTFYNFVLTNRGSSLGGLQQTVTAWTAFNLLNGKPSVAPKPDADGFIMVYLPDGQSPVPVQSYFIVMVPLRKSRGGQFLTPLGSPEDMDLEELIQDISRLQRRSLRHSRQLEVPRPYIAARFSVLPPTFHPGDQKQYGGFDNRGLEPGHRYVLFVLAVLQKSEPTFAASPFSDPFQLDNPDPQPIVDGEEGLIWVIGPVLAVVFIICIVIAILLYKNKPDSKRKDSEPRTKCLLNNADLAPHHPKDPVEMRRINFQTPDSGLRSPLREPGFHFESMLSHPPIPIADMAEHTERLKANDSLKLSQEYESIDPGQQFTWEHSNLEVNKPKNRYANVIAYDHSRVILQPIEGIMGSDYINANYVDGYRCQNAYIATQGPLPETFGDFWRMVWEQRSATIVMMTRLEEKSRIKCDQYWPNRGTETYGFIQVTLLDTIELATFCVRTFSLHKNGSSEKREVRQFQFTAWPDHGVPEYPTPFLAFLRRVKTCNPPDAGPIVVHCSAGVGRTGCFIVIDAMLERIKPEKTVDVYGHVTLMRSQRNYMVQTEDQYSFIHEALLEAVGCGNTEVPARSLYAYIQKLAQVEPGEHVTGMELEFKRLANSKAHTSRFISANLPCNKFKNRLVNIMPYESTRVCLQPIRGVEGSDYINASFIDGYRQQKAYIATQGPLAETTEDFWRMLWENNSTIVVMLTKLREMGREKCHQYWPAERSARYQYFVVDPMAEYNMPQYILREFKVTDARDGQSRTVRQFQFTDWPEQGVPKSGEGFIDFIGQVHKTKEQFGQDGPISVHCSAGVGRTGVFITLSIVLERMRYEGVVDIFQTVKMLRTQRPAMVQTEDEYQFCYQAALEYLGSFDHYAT
Chain of recombinant PTPRD (P23468 21-1912): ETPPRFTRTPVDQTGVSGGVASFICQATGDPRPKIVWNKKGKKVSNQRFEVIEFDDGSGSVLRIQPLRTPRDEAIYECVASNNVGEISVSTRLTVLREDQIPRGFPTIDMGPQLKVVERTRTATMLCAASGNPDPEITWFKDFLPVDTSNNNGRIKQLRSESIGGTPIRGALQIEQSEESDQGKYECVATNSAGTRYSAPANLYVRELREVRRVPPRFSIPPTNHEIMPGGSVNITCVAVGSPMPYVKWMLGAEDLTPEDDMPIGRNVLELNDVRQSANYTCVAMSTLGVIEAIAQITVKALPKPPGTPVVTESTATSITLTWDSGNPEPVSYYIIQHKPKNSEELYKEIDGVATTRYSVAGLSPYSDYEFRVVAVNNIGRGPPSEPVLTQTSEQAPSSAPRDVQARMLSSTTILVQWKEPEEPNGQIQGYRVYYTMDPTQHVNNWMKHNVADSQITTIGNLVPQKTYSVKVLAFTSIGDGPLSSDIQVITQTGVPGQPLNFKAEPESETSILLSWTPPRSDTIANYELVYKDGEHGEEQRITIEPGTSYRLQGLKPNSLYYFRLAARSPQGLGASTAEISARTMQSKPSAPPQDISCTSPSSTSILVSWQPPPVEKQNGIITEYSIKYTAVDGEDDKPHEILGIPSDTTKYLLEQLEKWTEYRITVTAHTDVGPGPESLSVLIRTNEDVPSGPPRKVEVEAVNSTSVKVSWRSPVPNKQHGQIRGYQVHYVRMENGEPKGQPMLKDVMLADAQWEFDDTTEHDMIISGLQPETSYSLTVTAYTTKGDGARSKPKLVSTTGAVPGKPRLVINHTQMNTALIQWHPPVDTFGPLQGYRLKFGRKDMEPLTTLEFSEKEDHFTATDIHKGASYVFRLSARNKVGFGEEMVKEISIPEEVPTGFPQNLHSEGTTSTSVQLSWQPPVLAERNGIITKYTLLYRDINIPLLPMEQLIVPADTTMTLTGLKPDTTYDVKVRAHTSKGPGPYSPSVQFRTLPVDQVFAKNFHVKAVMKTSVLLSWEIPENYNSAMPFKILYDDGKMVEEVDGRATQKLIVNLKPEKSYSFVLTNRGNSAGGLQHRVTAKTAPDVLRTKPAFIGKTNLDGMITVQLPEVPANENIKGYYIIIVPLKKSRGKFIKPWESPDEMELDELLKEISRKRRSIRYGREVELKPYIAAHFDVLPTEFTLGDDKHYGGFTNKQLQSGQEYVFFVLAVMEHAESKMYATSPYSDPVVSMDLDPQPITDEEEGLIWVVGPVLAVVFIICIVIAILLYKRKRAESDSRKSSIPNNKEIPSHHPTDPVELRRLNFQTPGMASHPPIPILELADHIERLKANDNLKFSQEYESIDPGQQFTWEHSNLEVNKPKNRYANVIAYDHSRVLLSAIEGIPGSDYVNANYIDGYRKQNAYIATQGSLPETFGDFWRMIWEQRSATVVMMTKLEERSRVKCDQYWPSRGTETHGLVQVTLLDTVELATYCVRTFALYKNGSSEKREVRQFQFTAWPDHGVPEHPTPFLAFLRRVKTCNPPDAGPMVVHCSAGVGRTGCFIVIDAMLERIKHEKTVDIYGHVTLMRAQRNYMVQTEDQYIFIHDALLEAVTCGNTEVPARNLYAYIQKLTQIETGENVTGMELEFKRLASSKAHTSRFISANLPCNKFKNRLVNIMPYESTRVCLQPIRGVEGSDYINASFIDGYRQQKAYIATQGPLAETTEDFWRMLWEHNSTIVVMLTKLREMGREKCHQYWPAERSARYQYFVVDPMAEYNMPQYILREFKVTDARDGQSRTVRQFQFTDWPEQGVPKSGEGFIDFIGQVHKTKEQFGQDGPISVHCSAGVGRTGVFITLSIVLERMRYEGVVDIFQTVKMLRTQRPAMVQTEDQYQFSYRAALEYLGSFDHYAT
Protocol for PTPRF: (§2) Phosphatase assays: Data for each assay type (3 wells/experimental condition, read using a Spectromax plate reader) was plotted vs time, and results derived from the slopes of linear regions were reported from triplicate independent experiments.
(§3) For assays of compound ligands that were likely pseudo-irreversible, 18 min preincubations were also added. For work determining the effect of flavonoids on pNPP hydrolysis, a 96 well half-area plate was prepared by first filling each well to be tested with 18 μL of 50 μM pNPP and 25 uL of running buffer, and 2 μL of DMSO containing the desired concentration of flavonoid and/or peptide. PTPRD phosphatase was diluted 1:50 in a dilution buffer.
Protocol for recombinant PTPRD: as §2, §3

For the compound `COc1cccc(COc2cc3c(c(C=O)c2OC)CC(O)OC3=O)c1` (centres unmarked) [Compound 31, 3-Hydroxy-6-methoxy-7-((3-methoxybenzyl)oxy)-1-oxoisochromane-5-carbaldehyde], the negative-log IC50 (pIC50) at recombinant PTPRD (setting [2]) is 5.39; on recombinant PTPRD (setting [3]), 5.25; on PTPRS (setting [4]), 4.89; on PTPRS (setting [5]), 5.49; against PTPRJ (setting [5]), 4.20; at PTPRF (setting [6]) it was 5.24. Also, at PTPN1 (PTP1B), the negative logarithm of the IC50 (pIC50) was 3.69.

In the case of `COc1c(OCc2ccc(Oc3ccccc3)cc2)cc2c(c1C=O)CC(O)OC2=O` (centres unmarked) [Compound 43, 3-Hydroxy-6-methoxy-1-oxo-7-((4-phenoxybenzyl)oxy)isochromane-5-carbaldehyde], the pIC50 is 5.80 at recombinant PTPRD (setting [2]); 5.80 at recombinant PTPRD (setting [3]); 5.87 at PTPRS (setting [4]); 5.87 at PTPRS (setting [5]); 4.55 against PTPRJ (setting [4]); 4.55 against PTPRJ (setting [5]). Further, the negative-log IC50 (pIC50) was 5.41 on PTPRF (setting [7]), 5.41 at PTPRF (setting [6]) and 4.78 at PTPN1 (PTP1B).

As to `COc1c(OCCCCc2ccc(O)cc2O)cc2c(c1C=O)CC(O)OC2=O` (centres unmarked) [Compound 55], the negative logarithm of the IC50 (pIC50) at recombinant PTPRD (setting [2]) is 5.35; at recombinant PTPRD (setting [3]), 5.35; on PTPRS (setting [4]), 5.64; at PTPRS (setting [5]) it was 5.64; against PTPRJ (setting [4]) it was 4.26; on PTPRJ (setting [5]), 4.26. For the same compound, the results for the pIC50 on PTPRF (setting [7]), on PTPRF (setting [6]) and at PTPN1 (PTP1B) were 5.17, 5.17 and 3.50, respectively.

Consider `COc1c(OCCC(C)C)cc2c(c1C=O)CC(O)OC2=O` (centres unmarked) [Compound 58, 3-Hydroxy-7-(isopentyloxy)-6-methoxy-1-oxoisochromane-5-carbaldehyde], for which the negative-log IC50 (pIC50) is 5.55 on recombinant PTPRD (setting [2]); 5.55 on recombinant PTPRD (setting [3]); 5.56 on PTPRS (setting [4]); 5.56 at PTPRS (setting [5]); 4.28 on PTPRJ (setting [4]); 4.28 on PTPRJ (setting [5]). Besides, the pIC50 is 5.41 on PTPRF (setting [7]), 5.41 on PTPRF (setting [6]) and 3.92 against PTPN1 (PTP1B).

Take `COc1c(OCC=C(C)C)cc2c(c1C=O)CC(O)OC2=O` (centres unmarked) [Compound 59, 3-Hydroxy-6-methoxy-7-(3-methyl-but-2-enyloxy)-1-oxo-isochroman-5-carbaldehyde]: the negative logarithm of the IC50 (pIC50) on recombinant PTPRD (setting [2]) was 5.49; at recombinant PTPRD (setting [3]), 5.49; on PTPRS (setting [4]), 5.74; on PTPRS (setting [5]), 5.74; against PTPRJ (setting [4]) it was 4.75; at PTPRJ (setting [5]), 4.75. Also, the negative logarithm of the IC50 (pIC50) on PTPRF (setting [7]) was 5.61; on PTPRF (setting [6]), 5.61; against PTPN1 (PTP1B), less than 4.00.

Turning to `COc1c(OCC2CCC2)cc2c(c1C=O)CC(O)OC2=O` (centres unmarked) [Compound 65, 7-Cyclobutylmethoxy-3-hydroxy-6-methoxy-1-oxo-isochroman-5-carbaldehyde], the negative-log IC50 (pIC50) on recombinant PTPRD (setting [3]) is 5.56; on PTPRS (setting [4]), 5.47; on PTPRS (setting [5]) it was 5.55; at PTPRJ (setting [5]), 4.49; on PTPRF (setting [7]), 5.52; on PTPRF (setting [6]), 5.34. The compound also had a pIC50 against PTPN1 (PTP1B) of 4.62.

Turning to `COc1c(OCC2CCCC2)cc2c(c1C=O)CC(O)OC2=O` (centres unmarked) [Compound 66, 7-Cyclopentylmethoxy-3-hydroxy-6-methoxy-1-oxo-isochroman-5-carbaldehyde], the “death (or euthanasia) prior to day 3” value in series [1] (400 or 200 mg/kg gavage) is “none”. In addition, in series [1] (mouse, single dose p.o., based on weight changes, gross pathology, histopathology, cage behaviors), the “no observed adverse effect level (NOAEL)” value worked out at 200 mg/kg. For the same compound, the negative-log IC50 (pIC50) at PTPRS (setting [4]) is 6.21; on PTPRS (setting [5]), 6.21; at PTPRJ (setting [4]) it was 4.53; against PTPRJ (setting [5]), 4.53; at PTPRF (setting [7]), 5.76; at PTPRF (setting [6]) it was 5.76. At PTPN1 (PTP1B), this compound had a pIC50 of 3.92.
